# From patent EP0070133B1, “Secondary phenylethanol amines, processes for their preparation and their pharmaceutical application” (priority 1981, dated 1983)
# Structures can show the parent of a compound that is named as a salt. Where two headings read alike, the source gives them in different places.
# Experiments:
# Female CFLP mice [1] = assay: Anti-hyperglycaemic activity: subcutaneous glucose load in fasted mice, area under blood glucose curve; type: in vivo; conditions: glucose 1 g/kg sc, 2 hour period, vs water control
# Experimental: Female CFLP mice, each weighing approximately 25 g, were fasted for 24 hours prior to the study. The compounds under study were administered orally as an aqueous solution to each of 6 mice. 6 mice were given water as a control. 30 minutes later a blood sample (20 µl) was obtained from the tail for the analysis of blood glucose. Immediately after taking this blood sample, glucose (1 g/kg body weight) was administered subcutaneously to each mouse. Blood samples were then obtained from each mouse at 30 minute intervals for 120 minutes.
# Compounds that produced a significant (P<0.05) reduction of blood glucose, compared with control mice given water, at any time interval, were considered active. The area under the blood glucose curve over the 2 hour period after the administration of the glucose was calculated for each compound and compared with the value for control animals.
# Female CFLP mice [2] = assay: Effect on energy expenditure and food intake of mice; type: in vivo; conditions: Mus musculus; for response vs control in vivo at 23.9 mg/kg / response vs control in vivo at 26.3 mg/kg / response vs control in vivo at 25.3 mg/kg / response vs control in vivo at 23.6 mg/kg / response vs control in vivo at 24.3 mg/kg / response vs control in vivo at 22.7 mg/kg / response vs control in vivo at 19.2 mg/kg: po, 21 h; for response vs control in vivo at 23.1 mg/kg: 23.1 mg/kg po, mice, 21 hours after dosing, % of mice dosed with water
# Experimental: Female CFLP mice each weighing approximately 24 g, were given food and water ad lib before and during the experiment. The compounds were dissolved in water by addition of one mole of hydrochloric acid per mole of compound and these solutions were administered orally to each of 12 mice. A further 12 mice were dosed orally with water. The mice were placed in boxes through which air was drawn and the oxygen content of the air leaving the boxes was measured. […] The food intake of the mice was measured over this same period of 21 hours. The results are expressed as a percentage of the mean food intake or rate of energy expenditure of the mice dosed with water.
# Rat hearts = assay: Cardiac activity: rat hearts perfused by the Langendorff procedure; conditions: for Emax: reference standard, maximum response, no dose given
# Experimental: Rat hearts were perfused by the Langendorff procedure as follows:- • Hearts were dissected free within 30 seconds of death and reverse perfused via the aorta and coronary vessels with Krebs-Ringer bicarbonate solution (pH 7.4, 37°C) gassed with 95% oxygen:5% carbon dioxide at a flow rate between 8-12 cm^3/minute. Responses were observed after injection of drug dissolved in isotonic saline into the perfusion media.
# Results are expressed as a percentage of the maximum response due to salbutamol.
# genetically obese mice = assay: Anti-obesity activity: carcass composition after 28 days of daily dosing; type: in vivo; conditions: 3.61 mg/kg p.o. daily for 28 days, Control 22.90
# Experimental: The compounds were administered by oral gavage in water or carboxymethyl-cellulose suspension to genetically obese mice daily for 28 days. At the end of the time the carcass composition was determined. The results obtained were as follows:-
# [3] = read-out: Mean Energy Expenditure (%)
# [4] = 30 μg added to perfusate, perfused rat heart, read-out: Heart Rate
# [5] = 30 μg added to perfusate, perfused rat heart, read-out: Heart Tension
compound,measurement,setting,value
"CC(Cc1ccc(OCCN2CCCCC2)cc1)NCC(O)c1cccc(Cl)c1 (stereo not shown) [Example 14, N-[2-(4-(2-(1-Piperidine)ethoxy)phenyl)-1-methylethyl]-2-hydroxy-2-(3-chlorophenyl)ethanamine dihydrochloride]",Reduction in area under Blood glucose curve (%),Female CFLP mice [1]; 1 μ moles/kg po,68%
same,response vs control in vivo at 23.9 mg/kg,Female CFLP mice [2]; [3],141%
same,response vs control in vivo at 23.9 mg/kg,Female CFLP mice [2]; read-out: Mean Food Intake (%),111%
same,Emax at 0.03 mg,Rat hearts; [4],0%
same,Emax at 0.03 mg,Rat hearts; [5],0%
same,g Lipid/Mouse Treated,genetically obese mice,19.83 g Lipid/Mouse
"CC(Cc1ccc(OCCNCc2ccccc2)cc1)NCC(O)c1cccc(C(F)(F)F)c1 (stereo not shown) [Example 18, N-[2-(4-(2-Benzylaminoethoxy)phenyl)-1-methylethyl]-2-hydroxy-2-(3-trifluoromethylphenyl)ethanamine]",Reduction in area under Blood glucose curve (%),Female CFLP mice [1]; 2.5 μ moles/kg po,50%
same,response vs control in vivo at 26.3 mg/kg,Female CFLP mice [2]; [3],131%
same,response vs control in vivo at 26.3 mg/kg,Female CFLP mice [2]; read-out: Mean Food Intake (%),80%
same,Emax at 0.03 mg,Rat hearts; [4],12%
same,Emax at 0.03 mg,Rat hearts; [5],7%
"CCOC(=O)NCCOc1ccc(CC(C)NCC(O)c2cccc(C(F)(F)F)c2)cc1 (stereo not shown) [Example 20, N-[2-(4-(2-Ethoxycarbonylaminoethoxy)phenyl)-1-methylethyl]-2-hydroxy-2-(3-trifluoromethylphenyl)-ethanamine]",Reduction in area under Blood glucose curve (%),Female CFLP mice [1]; 2.5 μ moles/kg po,36%
same,response vs control in vivo at 25.3 mg/kg,Female CFLP mice [2]; [3],115%
same,response vs control in vivo at 25.3 mg/kg,Female CFLP mice [2]; read-out: Mean Food Intake (%),86%
same,Emax at 0.03 mg,Rat hearts; [4],12%
same,Emax at 0.03 mg,Rat hearts; [5],0%
"CC(=O)NCCOc1ccc(CC(C)NCC(O)c2cccc(C(F)(F)F)c2)cc1 (stereo not shown) [Example 21, N-[2-(4-(2-Acetylaminoethoxy)phenyl)-1-methylethyl]-2-hydroxy-2-(3-trifluoromethylphenyl)ethanamine]",Reduction in area under Blood glucose curve (%),Female CFLP mice [1]; 2.5 μ moles/kg po,44%
same,response vs control in vivo at 23.6 mg/kg,Female CFLP mice [2]; [3],119%
same,response vs control in vivo at 23.6 mg/kg,Female CFLP mice [2]; read-out: Mean Food Intake (%),102%
same,Emax at 0.03 mg,Rat hearts; [4],22%
same,Emax at 0.03 mg,Rat hearts; [5],24%
"CNCCOc1ccc(CC(C)NCC(O)c2cccc(Cl)c2)cc1.Cl.Cl (stereo not shown) [Example 22, N-[2-(4-(2-Methylaminoethoxy)phenyl)-1-methylethyl]-2-hydroxy-2-(3-chlorophenyl)ethanamine dihydrochloride]",Reduction in area under Blood glucose curve (%),Female CFLP mice [1]; 1 μ moles/kg po,43%
same,response vs control in vivo at 24.3 mg/kg,Female CFLP mice [2]; [3],124%
same,response vs control in vivo at 24.3 mg/kg,Female CFLP mice [2]; read-out: Mean Food Intake (%),84%
same,Emax at 0.03 mg,"Rat hearts; Rattus norvegicus, read-out: Heart Rate",57%
same,Emax at 0.03 mg,"Rat hearts; Rattus norvegicus, read-out: Heart Tension",22%
"CN(C)CCOc1ccc(CCC(C)(C)NCC(O)c2ccccc2)cc1.Cl.Cl (stereo not shown) [Example 35, N-[3-(4-(2-Dimethylaminoethoxy)phenyl)-1,1-dimethylpropyl]-2-hydroxy-2-phenylethanamine dihydrochloride]",Reduction in area under Blood glucose curve (%),Female CFLP mice [1]; 250 μ moles/kg po,18%
same,response vs control in vivo at 23.1 mg/kg,Female CFLP mice [2]; [3],95%
same,response vs control in vivo at 23.1 mg/kg,Female CFLP mice [2]; read-out: Mean Food Intake (%),83%
"CCN(CC)CCOc1ccc(CC(C)NCC(O)c2cccc(C(F)(F)F)c2)cc1.O=C(O)/C=C/C(=O)O (stereo not shown) [Example 36, N-[2-(4-(2-Diethylaminoethoxy)phenyl)-1-methylethyl]-2-hydroxy-2-(3-trifluoromethylphenyl)ethanamine fumarate]",Reduction in area under Blood glucose curve (%),Female CFLP mice [1]; 50 μ moles/kg po,56%
same,response vs control in vivo at 22.7 mg/kg,Female CFLP mice [2]; [3],132%
same,response vs control in vivo at 22.7 mg/kg,Female CFLP mice [2]; read-out: Mean Food Intake (%),78%
"CC(Cc1ccc(OCC#N)cc1)NCC(O)c1cccc(Cl)c1 (stereo not shown) [Example 38, N-[2-(4-Cyanomethoxylphenyl)-1-methylethyl]-2-hydroxy-2-(3-chlorophenyl)ethanamine]",Reduction in area under Blood glucose curve (%),Female CFLP mice [1]; 0.5 μ moles/kg po,63%
same,response vs control in vivo at 19.2 mg/kg,Female CFLP mice [2]; [3],132%
same,response vs control in vivo at 19.2 mg/kg,Female CFLP mice [2]; read-out: Mean Food Intake (%),81%
"CC(C)(C)NCC(O)c1ccc(O)c(CO)c1 (stereo not shown) [Salbutamol, reference compound]",Emax,"Rat hearts; perfused rat heart, read-out: Heart Rate",100%
same,Emax,"Rat hearts; perfused rat heart, read-out: Heart Tension",100%
